# “Also recorded” adds a separate entry of the source.
# Key:
# Type in all cases: cell-based
# [1] = system: mouse insulinoma cells (MIN6); test: Uptake into MIN6 cells and influence of glucose transport inhibitors (fluorescent microplate reader)
# Procedure: Cryopreserved MIN6 cells (cells donated from Professor Miyazaki Junichi of Osaka University and cultured 5 to 8 passages) were subjected to culture according to an ordinary method, and cultures at 7 to 9 passages were used in experiments.
# NaCl 129.0 mM, KCl 4.75 mM, KH2 PO4 1.19 mM, MgSO4.7H2O 1.19 mM, CaCl2.2H2O 1.0 mM, NaHCO3 5.02 mM, D-Glucose 5.6 mM, HEPES 10 mM (pH was adjusted to 7.35 with 1M NaOH). For inhibiting entrance and elimination of a fluorescently labeled glucose via gap junction/hemichannel, 0.1 mM Carbenoxolone (SIGMA #C4790) was added. This KRB solution was used as a solution for preparing a 2-PBLG solution.
# 2-PBDG and 2-PBLG were charged into wells at the third column and the fifth column, respectively, using a 8-channel pipette. Before administration, the autofluorescence of each well was measured beforehand by a fluorescent micro plate reader (Flex Station, manufactured by Molecular Device). The measurement conditions include Bottom Read, Ex 401 nm, Em 453 nm, Cut off 420 nm, Averaging 3, and high sensitivity of Photomultiplier. In the measurement method, Well Scan Mode was used. In Well Scan Mode, the inside of one well was divided into 9 regions of interest (diameter: 1.5 mm) and measurement was performed each independently.
# Next, in wells (3C, 3E, 3G) for measuring the effect of a glucose transport inhibitor phloretin, phloretin (final 150 μM) was administered beforehand from 5 minutes prior to administration of 2-PBDG, while KRB was added to other wells (3B, 3D, 3F). Similar operation was also conducted on the fifth column where 2-PBLG was to be administered. 2-PBDG and 2-PBLG were administrated at 37° C. for 10 minutes.
# After completion of administration, a diluting operation of the fluorescence solution in the well using 300 μL of a KRB solution was repeated set times each for 30 seconds. The repetition time was determined so that the fluorescence intensity detected by wells of A-th row and H-th row set as a control group was equivalent to the fluorescence intensity of a blank well containing no cell, and complete washout was confirmed in every experiment. In the case of 2-PBDG and 2-PBLG, this washout process needed 8 minutes, thus, measurement of fluorescence after administration was carried out 9 minutes after.
# According to this method, even if cells having undergone a loss of the plasma membrane contacted 2-PBDG and 2-PBLG and once took up these compounds into themselves, it is judged that contribution of the increase in the fluorescence intensity to the whole observation area was ignorable level since these compounds had already been washed out of the cells when performing the measurement. This was supported by a pharmacological inhibition experiment separately in which the increase in the fluorescence intensity almost completely disappeared in the presence of an inhibitor. The above-described method was conducted in the same manner also when other inhibitor, for example, cytochalasin B (10 μM) was added.
# The change of fluorescence intensity by administration of a D-glucose derivative (2-PBDG), an L-glucose derivative (2-PBLG) and PB—NH2 prepared by amidating Pacific Blue (PB) chromophore group to MIN6 cells on day of 10 of culture and the effect by a glucose transport inhibitor were confirmed in the same manner as in Example 4. PB—NH2 has the following structure (Ex max. 402 nm, Em max. 451 nm).
# An experiment was conducted in the same manner as in Example 4.
# The experiment was carried out 3 times independently, and the same results were obtained in all cases. In the experiment of administration of 2-PBDM, excitation occurred at a maximum excitation light wavelength of 404 nm and fluorescence was acquired at a maximum emission wavelength of 453 nm.
# [2] = system: neurons acutely dissociated from mouse midbrain substantia nigra pars reticulata; test: Application of fluorescent sugar derivatives to acutely dissociated normal neurons (confocal imaging of uptake); details: for increase in fluorescence intensity in the neuron before and after administration: 3 minutes, comparative compounds
# Procedure: This was conducted according to a method described in WO 2010/16587.
# Living neurons were acutely dissociated from mouse midbrain substantia nigra pars reticulata, and to which a mixed solution containing 100 μM of 2-PBDG and 20 μM of 2-TRLG was administered at 37° C. for 5 minutes. FIGS. 1A to C represent confocal microscopic images taken immediately before this. A is a fluorescence image in blue wavelength region (Blue channel, wavelength range: 415-580 nm). The position of cells is recognized by autofluorescence. The fluorescence signal intensity is represented by pseudocolor. B is a fluorescence image in red wavelength region (Red channel, 580-740 nm). A and B were obtained both by simultaneous excitation using 405 nm Blue diode laser at an intensity of 60%, wherein photomultipliers (PMT) 1 and 2 were used respectively, and the detection sensitivity of PMT2 was raised higher than PMT1 so that the presence or absence of invasion of 2-TRLG can be detected in a sensitive manner. C is a view in which the bright field image is overlaid on the fluorescence images of A and B.
# An experiment was conducted in the same manner as in Example 2.
# FIGS. 2A to C represent confocal microscopic images immediately before administration of a mixed solution containing 100 μM of 2-PBLG and 20 μM of 2-TRLG at 37° C. to acutely dissociated neurons of mouse midbrain substantia nigra pars reticulata for 5 minutes.
# FIG. 3 represents confocal microscopic images before and after administration of a mixed solution containing 100 μM of 2-HCDG and 20 μM of 2-TRLG at 37° C. for 3 minutes to neurons acutely dissociated from mouse midbrain substantia nigra pars reticulata. A and B are fluorescence images acquired before administration in Blue channel (415-580 nm) and Red channel (580-740 nm), respectively. The excitation wavelength is 405 nm. C is an image of differential interference (Differential Interference contrast, DIC). D is an overlay of the above-described images. E to H are the same as A to D, excepting that E to H are images acquired 4 minutes after initiation of washout of the fluorescence tracer solution after administration of the 2-HCDG+2-TRLG fluorescence tracer solution at 37° C. for 3 minutes. […] Since invasion of 2-TRLG into a cell is not observed, the plasma membrane of the neuron is thought to be maintained intactly.
# Since the optimal excitation wavelength was as very low as 320 nm in this experiment, an image was acquired by Retiga-2000R CCD camera manufactured by Q-imaging via a custom-order filter constituted of an excitation filter (320 nm) (half width: 40 nm), a fluorescence filter (435 nm) (half width: 40 nm) and a dichroic mirror (409 nm), by a xenon lamp, using Nikon Ti-E real time deconvolution microscope.
# [3] = system: tumor cell cluster composed of mouse insulinoma cells (MIN6); test: Imaging of tumor cell cluster composed of MIN6 cells (real time laser scanning confocal microscope); details: MIN6 cluster day 13; for fluorescence of cells in the cancer cell cluster 8 minutes after completion of administration: mixed solution 100 μM 2-PBLG, 100 μM 2-NBDLG, 20 μM 2-TRLG
# Procedure: A culture solution prepared by suspending MIN6 cells at a proportion of 10×10^4 cells/mL was dropped in an amount of 10 μL on a glass cover slip, then, allowed to adhere to the glass surface, and 3 mL of the culture solution was added and cultured. The half quantity of the culture solution was changed every three days.
# Cryopreserved MIN6 cells (cells donated from Professor Miyazaki Junichi of Osaka University and cultured 5 to 8 passages) were subjected to culture according to an ordinary method, and cultured 7 to 9 passages which were used in experiments. The half amount of the culture solution was changed every two days.
# NaCl 120.0 mM, KCl 4.75 mM, KH2 PO4 1.19 mM, MgSO4.7H2O 1.19 mM, CaCl2.2H2O 1 mM, NaHCO3 5.02 mM, D-Glucose 5.6 mM, HEPES 10 mM (adjusted to pH 7.35 with 1M NaOH). For inhibiting entrance and elimination of fluorescently labeled glucose via a gap junction/hemichannel, 0.1 mM Carbenoxolone (SIGMA #C4790) was added. The HEPES solution for image acquisition was used as a solution for preparing a 2-PBLG solution and as a solution for preparing a 2-PBLG/2-TRLG solution and 2-PBLG/2-NBDLG/2-TRLG solution.
# A glass cover slip wherein MIN6 cells had been cultured was transferred into a HEPES solution for image acquisition in a perfusion chamber set on a universal stage (Leica 11600234) on a confocal laser scanning microscope (TCS SP5 available from Leica), and adhered gently and tightly to the glass surface at the bottom of the chamber. […] Further, there is an excellent effect that in the space sandwiched by the metal guides, the perfusion solution flows smoothly as a laminar flow and quick solution exchange is possible.
# A perfusion solution feeding system is equipped with one 60 mL cylinder for a control solution and five 10 mL cylinders for agent feeding, which can be switched as needed by a magnetic valve to allow perfusion. In experiments according to the present invention, a 5.6 mM glucose-containing HEPES solution for image acquisition was administered using the 60 mL cylinder and a mixed solution of 2-PBLG/2-NBDLG/2-TRLG, a mixed solution of 2-PBDG/2-TRLG, or a mixed solution of 2-PBLG/2-TRLG was administered using one of the five 10 mL cylinders. As described below, to avoid generation of bubbles in the perfusion chamber, both the solutions were heated beforehand, combined in one tube before being introduced into the perfusion chamber, the flow rate thereof being controlled by a flow rate controller, then, heated again by an inline heater and fed to the perfusion chamber on the confocal microscope.
# A laser scan confocal microscope (manufactured by Leica, TCS-SP5 system, microscope body is DMI6000 CS trino electromotive inverted microscope) was used in conventional mode. Regarding laser used, a 405 nm diode laser was used for excitation of 2-PBLG and 2-PBDG, excitation of a mixed solution of 2-PBLG (or 2-PBDG) and 2-TRLG with a single light source, or live staining of nucleus by DAPI. The irradiation intensity was appropriately adjusted in accordance with the fluorescent pigment used so as to obtain sufficient observation intensity by an acoustic optical polarization element (Acoustic Optical Tunable Filter, AOTF). 2-NBDLG and 2-TRLG were excited by 488 nm Argon laser. The scan speed was 200 Hz or 400 Hz.
# In fluorescence detection, a photomultiplier detector (PMT) 1 was used for detection of blue fluorescence by 2-PBDG or 2-PBLG and images were acquired in a wavelength detection range set at 415-580 nm in the case of detection of bicolor of 2-PBLG/2-TRLG and in a wavelength detection range set at 415-500 nm in the case of detection of tricolor of 2-PBLG/2-NBDLG/2-TRLG. For detection of green fluorescence by 2-NBDLG, PMT2 (called green channel, the same shall apply hereinafter) was used in a wavelength detection range of 500-580 nm. For detection of red fluorescence by 2-TRLG, PMT3 (called red channel, the same shall apply hereinafter) was used in a wavelength detection range of 580-740 nm. […]
# [4] = 100 μM derivative, phloretin 150 μM, MIN6 day 10
# [5] = 100 μM with 20 μM 2-TRLG, 37° C.
compound,measurement,setting,value
"O=C(NC1C(O)OC(CO)[C@@H](O)C1O)c1cc2cc(F)c(O)c(F)c2oc1=O (stereo partly drawn) [2-PBDM, 2-Deoxy-2-((6,8-difluoro-7-hydroxycoumarin-3-yl)carboxamido)-D-mannose]",effect of phloretin on increase in fluorescence intensity (in words),[1]; [4],slight but significant inhibitory effect
"O=C(NC1C(O)OC(CO)[C@@H](O)C1O)c1cc2ccc(O)cc2oc1=O (stereo partly drawn) [2-HCDG, 2-Deoxy-2-((7-hydroxycoumarin-3-yl)carboxamido)-D-glucose]",increase in fluorescence intensity in the neuron before and after administration,[2]; [5],no increase in the fluorescence intensity is detected
"COc1ccc2c(CC(=O)N[C@@H](C=O)[C@@H](O)[C@H](O)[C@H](O)CO)cc(=O)oc2c1 [2-MCDG, 2-Deoxy-2-(2-(7-methoxycoumarin-4-yl)acetamido)-D-glucose]",increase in fluorescence intensity in the neuron before and after administration,[2]; [5],not recognized
"O=C(NC1C(O)OC(CO)[C@@H](O)C1O)c1cc2cc(F)c(O)c(F)c2oc1=O (stereo partly drawn) [2-PBDG, 2-Deoxy-2-((6,8-difluoro-7-hydroxycoumarin-3-yl)carboxamido)-D-glucose]",decreased value of fluorescence intensity owing to phloretin (average),"[1]; 100 μM derivative, 150 μM phloretin, MIN6 day 10, increase without phloretin as reference",22.4%
same,effect of cytochalasin B on increase in fluorescence intensity,"[1]; 100 μM derivative, cytochalasin B 10 μM, MIN6 day 10",did not show a significant inhibitory effect
same,fluorescence intensity after administration as compared with that before administration,"[1]; 100 μM, MIN6 on day 10 of culture, Ex 401 nm, Em 453 nm",increases significantly
same,intracellular fluorescence intensity in Blue channel as compared with that before administration,"[2]; 100 μM with 20 μM 2-TRLG, 37° C., 5 minutes, image 4 minutes after initiation of washout",increased excepting nucleus
same,persistence of intracellular blue fluorescence after washout,[2]; images 8 and 20 minutes after initiation of washout,not easily diminished
2-TexasRed-2-amino-2-deoxy-L-glucose [2-TRLG],fluorescence of cells in the cell cluster 2 minutes after initiation of washout,"[3]; mixed solution 100 μM 2-PBLG and 20 μM 2-TRLG, administered 5 minutes",invades into the cell having increased membrane permeability mainly present at the center of a cell cluster
same,fluorescence of cells in the cancer cell cluster 8 minutes after completion of administration,[3],very weak red fluorescence
same,fluorescence intensity in Red channel / invasion of 2-TRLG into a cell,"[2]; 20 μM 2-TRLG co-administered with 100 μM blue derivative, 37° C.",did not increase; also recorded: scarcely increased; also recorded: not observed
"O=[N+]([O-])c1ccc(NC2C(O)OC(CO)[C@H](O)C2O)c2nonc12 (stereo partly drawn) [2-NBDLG, 2-[N-(7-nitrobenz-2-oxa-1,3-diazol-4-yl)amino]-2-deoxy-L-glucose, reference compound]",fluorescence of cells in the cancer cell cluster 8 minutes after completion of administration,[3],difficult to specify these cells only by the fluorescence imaging by 2-NBDLG
"NC(=O)c1cc2cc(F)c(O)c(F)c2oc1=O [PB—NH2, reference compound]",effect of phloretin on increase in fluorescence intensity (in words),[1]; [4],remarkably promoted
same,increase in the fluorescence with phloretin compared to when only PB—NH2 is administrated,"[1]; 100 μM, phloretin 150 μM, n=3 experiments",384.1±24.2%
same,increase in fluorescence intensity compared with that of 2-PBLG,"[1]; 100 μM, same culture plate, MIN6 day 10",significantly larger
